According to PubChem BioAssay (NCI):
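Abbreviation: GI50, concentration required for 50% inhibition of growth. TGI: concentration producing complete growth inhibition.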

How the values were obtained:
Experiment in all cases: NCI tumour cell line growth inhibition, 384-well format
[1] = tested on: NCI/ADR-RES ovarian
[2] = tested on: HL-60(TB) leukemia
[3] = tested on: NCI-H522 lung
[4] = tested on: HOP-62 NSCLC
[5] = tested on: CCRF-CEM leukemia
[6] = tested on: 786-0 renal
[7] = tested on: SR leukemia
[8] = tested on: SF-268 CNS
[9] = tested on: SK-MEL-28 melanoma
[10] = tested on: COLO 205 colon
[11] = tested on: MDA-MB-435 melanoma
[12] = tested on: CAKI-1 renal
[13] = tested on: OVCAR-5 ovarian
[14] = tested on: HT29 colon
[15] = tested on: HCT-15 colon
[16] = tested on: K-562 leukemia
[17] = tested on: NCI-H460 NSCLC
[18] = tested on: A498 renal
[19] = tested on: T-47D breast
[20] = tested on: KM12 colon
[21] = tested on: MOLT-4 leukemia
[22] = tested on: SNB-75 CNS
[23] = tested on: PC-3 prostate
[24] = tested on: TK-10 renal
[25] = tested on: UO-31 renal
[26] = tested on: SK-OV-3 ovarian
[27] = tested on: HS 578T breast
[28] = tested on: DU-145 prostate
[29] = tested on: NCI-H322M lung
[30] = tested on: U251 glioblastoma
[31] = tested on: SNB-19 CNS
[32] = tested on: RXF 393 renal
[33] = tested on: OVCAR-3 ovarian
[34] = tested on: MDA-MB-468 breast
[35] = tested on: HCT-116 colon
[36] = tested on: MALME-3M melanoma
[37] = tested on: A549 NSCLC
[38] = tested on: HOP-92 NSCLC
[39] = tested on: ACHN renal
[40] = tested on: IGROV1 ovarian
[41] = tested on: BT-549 breast
[42] = tested on: OVCAR-8 ovarian
[43] = tested on: MDA-MB-231 breast
[44] = tested on: EKVX NSCLC
[45] = tested on: SK-MEL-5 melanoma
[46] = tested on: SW-620 colon
[47] = tested on: RPMI-8226 leukemia

CN1CCN(c2ccc(Nc3cc(-c4cccc(-n5ccc6cc(C7CC7)cc(F)c6c5=O)c4CO)cn(C)c3=O)nc2)CC1
GI50 [1]: 2.51 µM | TGI [1]: 5.66 µM | GI50 [2]: 1.84 µM | TGI [2]: 3.25 µM | GI50 [3]: 2.05 µM | TGI [3]: 4.02 µM | GI50 [4]: 2.77 µM | TGI [4]: 7.57 µM | GI50 [5]: 1.78 µM | TGI [5]: 3.18 µM | GI50 [6]: 1.69 µM | TGI [6]: 3.39 µM | GI50 [7]: 1.58 µM | TGI [7]: 2.94 µM | GI50 [8]: 2.4 µM | TGI [8]: 7.46 µM | GI50 [9]: 1.71 µM | TGI [9]: 3.11 µM | GI50 [10]: 2.02 µM | TGI [10]: 3.69 µM | GI50 [11]: 3.59 µM | TGI [11]: 11.7 µM | GI50 [12]: 2.18 µM | TGI [12]: 5.6 µM | GI50 [13]: 1.94 µM | TGI [13]: 3.97 µM | GI50 [14]: 1.72 µM | TGI [14]: 3.19 µM | GI50 [15]: 2.45 µM | TGI [15]: 7.4 µM | GI50 [16]: 1.77 µM | TGI [16]: 3.33 µM | GI50 [17]: 2.06 µM | TGI [17]: 4.14 µM | GI50 [18]: 2.05 µM | TGI [18]: 3.96 µM | GI50 [19]: 1.75 µM | TGI [19]: 3.71 µM | GI50 [20]: 2.4 µM | TGI [20]: 5.1 µM | GI50 [21]: 1.51 µM | TGI [21]: 2.85 µM | GI50 [22]: 1.73 µM | TGI [22]: 3.44 µM | GI50 [23]: 3.78 µM | TGI [23]: 12.1 µM | GI50 [24]: 2.32 µM | TGI [24]: 5.77 µM | GI50 [25]: 1.77 µM | TGI [25]: 3.19 µM | GI50 [26]: 2.59 µM | TGI [26]: 6.61 µM | GI50 [27]: 1.82 µM | TGI [27]: 3.48 µM | GI50 [28]: 2.97 µM | TGI [28]: 9.08 µM | GI50 [29]: 3.91 µM | TGI [29]: 9.99 µM | GI50 [30]: 2.2 µM | TGI [30]: 4.54 µM | GI50 [31]: 3.96 µM | TGI [31]: 13.5 µM | GI50 [32]: 1.6 µM | TGI [32]: 3.11 µM | GI50 [33]: 1.79 µM | TGI [33]: 3.28 µM | GI50 [34]: 1.7 µM | TGI [34]: 3.16 µM | GI50 [35]: 1.71 µM | TGI [35]: 3.26 µM | GI50 [36]: 1.86 µM | TGI [36]: 3.27 µM | GI50 [37]: 3.1 µM | TGI [37]: 10.5 µM | GI50 [38]: 2.11 µM | TGI [38]: 4.78 µM | GI50 [39]: 1.6 µM | TGI [39]: 3.01 µM | GI50 [40]: 2.89 µM | TGI [40]: 9.19 µM | GI50 [41]: 2.24 µM | TGI [41]: 5.29 µM | GI50 [42]: 1.79 µM | TGI [42]: 3.56 µM | GI50 [43]: 1.95 µM | TGI [43]: 3.92 µM | GI50 [44]: 2.03 µM | TGI [44]: 4.57 µM | GI50 [45]: 1.62 µM | TGI [45]: 3.02 µM | GI50 [46]: 2.61 µM | TGI [46]: 6.97 µM | GI50 [47]: 2.06 µM | TGI [47]: 3.56 µM
